System: MKN45 cells
Test: MKN45 cell proliferation assay (CellTiter-Glo)
Assay type: cell-based
Details: Homo sapiens, MKN-45, 72 h; MKN45 cell line, 3 days incubation, at least duplicate experiments; read-out: Prolif. IC50
Experimental: The effect of inhibitors on the proliferation of MKN45 cells was determined using the following protocol. MKN45 cells were plated in Corning 3917 96-well white tissue culture treated plates in growth medium (RPMI, 10% FCS) at a density of 5000 cells/well in a total volume of 135 μL and incubated at 37° C., 5% CO2, 95% humidity overnight. The following day, one-tenth volume of a 10× concentration of compounds was added to the wells in an 8-point dilution series. The dilution series was composed of an initial 1:5 dilution of a 10 mM stock of compound in DMSO, followed by serial 1:4 dilutions in DMSO, then a 1:20 dilution in growth medium prior to the 1:10 dilution into the cell plate. Final DMSO concentration on the cells was 0.1%, there were control wells treated with both 0.1% DMSO and no DMSO. The typical dilution range is 10 μM to 0.6 nM. Once the compound was added to the cells, plates were incubated for 3 days at 37° C., 5% CO2 at 95% humidity. On the third day, after allowing all cells and reagents to come to room temperature, 25 μL of CellTiter-Glo reagent (Promega #G7573) was added to the wells. Plates were shaken on a platform for 10 minutes prior to reading luminescence for 0.1 seconds. The signal of the control wells was taken as 100% growth and growth inhibition was expressed as percent of control. IC50 values were determined from the percent of control data using a standard four-parameter model.
The IC50 values of exemplary compounds of the present invention determined in a cell proliferation assay using the MKN45 cell line according to the procedures described herein in at least duplicate experiments are abbreviated as follows and are shown in Table 2: A, IC50≦0.03 μM; B, 0.03 μM<IC50≦0.1 μM; C, 0.1 μM<IC50≦1 μM; D, 1 μM<IC50≦3 μM; ND, not determined. The Example # of Table 2 corresponds to the compound example number as illustrated in the Examples section. […]

IC50	Compound
≤ 30 nM	O[C@H]1CC[C@H](n2cc(-c3cnc4[nH]cc([C@@H](CF)c5c(OC(F)F)ccc(F)c5Cl)c4c3)cn2)CC1 [Example 4, trans-4-[4-(3-{(1R)-1-[2-Chloro-6-(difluoromethoxy)-3-fluorophenyl]-2-fluoroethyl}-1H-pyrrolo[2,3-b]pyridin-5-yl)-1H-pyrazol-1-yl]cyclohexanol]
100 to 1000 nM	Cn1cc(-c2cnc3[nH]cc(C(CF)c4c(Cl)ccc(F)c4Cl)c3c2)cn1 (stereo not drawn) [Example 1, 3-[1-(2,6-Dichloro-3-fluorophenyl)-2-fluoroethyl]-5-(1-methyl-1H-pyrazol-4-yl)-1H-pyrrolo[2,3-b]pyridine]
100 to 1000 nM	COc1ccc(F)c(Cl)c1[C@@H](CF)c1c[nH]c2ncc(-c3cnn([C@H]4CC[C@H](O)CC4)c3)cc12 [Example 3, trans-4-(4-{3-[(1S)-1-(2-chloro-3-fluoro-6-methoxyphenyl)-2-fluoroethyl]-1H-pyrrolo[2,3-b]pyridin-5-yl}-1H-pyrazol-1-yl)cyclohexanol]
